Where “and” joins values, the source holds several entries; their conditions need not be identical. Identical values can stand only once.
Tested on: H3K4me3 at known PRDM9 binding loci and control TSS loci
Assay: ChIP-qPCR of H3K4me3 in PRDM9-transfected HEK293T cells
Assay type: cell-based, human
Conditions: for 2^-dCq / dCq (IP-Input) / 2^-dCq (H3K4me3 IP relative to H3 IP) / Cq / 2^-dCq (H3K4me3 ChIP relative to H3 ChIP) / 2^-dCq (H3K4me3 ChIP-qPCR, IP relative to H3) / <Cq>: Antibody H3K4me3; for 2^-dCq / dCq (IP-Input) / Cq / <Cq>: Figure 7 Replicate 2; for 2^-dCq (H3K4me3 IP relative to H3 IP): ChIP-qPCR Replicate 1; for Cq: ChIP-qPCR single well; for 2^-dCq (H3K4me3 ChIP relative to H3 ChIP): Replicate 1; for 2^-dCq (H3K4me3 ChIP-qPCR, IP relative to H3) / H3K4me3 ChIP-qPCR 2^-dCq (IP-Input): Replicate 2; for H3K4me3 ChIP-qPCR 2^-dCq (IP-Input): H3K4me3 antibody relative to H3; for <Cq>: mean of two wells
Procedure: ChIP-qPCR assays were then conducted on known PRDM9 binding loci[26]. Ectopic expression of PRDM9^WT increased trimethylation of H3K4 (H3K4me3) at previously described PRDM9-specific intragenic and intergenic regions[26] (Fig. 7; Supplementary Fig. 12). […] The observed increases in H3K4me3 levels at intragenic and intergenic regions are therefore due directly to PRDM9 PR domain-dependent methylation activity, rather than through recruitment of other H3K4 methyltransferases or other indirect mechanisms.
ChIP qPCR analyses of H3K4me3 methylation levels of known PRDM9-bound loci and control loci. […] Concentrations used (µM) are indicated below each plot. (a–d) represent reported loci of PRDM9 methylation; (e, f) are transcriptional start sites (TSSs) which are not known loci of PRDM9 methylation. Data are normalized to total H3 and are presented as the mean ± upper and lower limits from two replicates. Representative plots of two independent experiments are shown in this figure. The coordinates and the genomic features associated with the assayed loci are indicated above each plot. Left Tailed Student's t-tests were performed by comparing DMSO (0 µM) treated cells to compound treated cells that have been transfected with the same plasmids. *p-value < 0.05 and **p-value < 0.01. Note that here we show a representative of two independent experiments (mean ± s.d of technical replicates) for our ChIP-qPCR experiments. Data obtained using this technique are inherently noisy due to stochastic differences in gene activity/histone positioning. Data are thus typically presented as representative rather than averaged. Source data are provided as a Source Data file.
HEK293T cells were transfected with 37.5 μg empty pcDNA3.1(+) vector (Invitrogen), or the same vector expressing either wild-type PRDM9 (PRDM9^WT) or a catalytically dead PRDM9 mutant (PRDM9^Mut) and 75 μL of Lipofectamine 2000 (Invitrogen) in 6 mL of Opti-MEM (GIBCO) for 48 h. […] ChIP assays were then performed as previously described. Briefly, cells were fixed in 1% formaldehyde and the fixation reaction was quenched in a final concentration of 0.1 M glycine. Cell pellets were first lysed in LB1 (50 mM HEPES-KOH pH 7.5, 140 mM NaCl, 1 mM EDTA, 10% Glycerol, 0.5% Igepal, 0.25% TritonX), washed once in LB2 Buffer (10 mM Tris-HCl pH 8, 200 mM NaCl, 1 mM EDTA, 0.5 mM EGTA) and finally sonicated in LB3 buffer (10 mM Tris-HCl pH 8, 100 mM NaCl, 1 mM EDTA, 0.5 mM EGTA, 0.1% Sodium deoxycholate, 0.5% N-laurosylsarcosine) using a bioruptor (Diagenode). Thereafter, 50 μg of chromatin was subjected to ChIP using the following antibodies purchased from Abcam: α-H3K4me3 (1:200, ab8580, lot:GR3207339-1) and α-H3 (1:250, ab1791, lot:GR300978-4). After extensive washing in RIPA wash buffer (50 mM HEPES-KOH pH 7.6, 100 mM LiCl, 1 mM EDTA, 1% Igepal, 0.7% Sodium Deoxycholate), DNA was eluted from beads. The eluted DNA was treated with RNase A and Proteinase K and purified using the QIAGEN PCR purification kit. qPCR was then carried out targeting the indicated loci (Supplementary Table 3). Upper and lower limits were defined by |2^−(dCq±s) − 2^−(∆Cq)|, where s = √((Standard deviation of Input Cq)^2 + (Standard deviation of Target Cq)^2). […]
formation. ChIP qPCR analyses of H3K4me3 methylation levels at known PRDM9-bound and control loci. Cells transfected with empty vector (negative control) or vectors overexpressing either wild-type PRDM9 (PRDM9 WT) or catalytically dead PRDM9 (PRDM9 MUT) were […]
Panels a-d represent reported loci of […]
(1 picture or pasted object on this page, not shown here)
PRDM9 methylation; e-f are TSSs which are not known sites of PRDM9 methylation. Data are normalized to total H3 and are presented as the mean ± upper and lower limits from two […]

[1] = Figure 7 E chr12:6643945-6644023 TSS (GAPDH), Plasmid Empty Vector, Drug Conc. 5
[2] = Figure 7 E chr12:6643945-6644023 TSS (GAPDH), Plasmid Empty Vector, Drug Conc. 10
[3] = Figure 7 E chr12:6643945-6644023 TSS (GAPDH), Plasmid PRDM9WT, Drug Conc. 5
[4] = Figure 7 E chr12:6643945-6644023 TSS (GAPDH), Plasmid PRDM9WT, Drug Conc. 10
[5] = Figure 7 F chr19:8510167-8510261 TSS (HNRNPM), Plasmid Empty Vector, Drug Conc. 5
[6] = Figure 7 F chr19:8510167-8510261 TSS (HNRNPM), Plasmid Empty Vector, Drug Conc. 10
[7] = Figure 7 F chr19:8510167-8510261 TSS (HNRNPM), Plasmid PRDM9WT, Drug Conc. 5
[8] = Figure 7 F chr19:8510167-8510261 TSS (HNRNPM), Plasmid PRDM9WT, Drug Conc. 10

COc1cc(OC)cc(-c2noc(N3CCN(C)C4(CCN(c5ccccc5)CC4)C3)n2)c1 [MRK-740-NC]
2^-dCq (Plasmid PRDM9WT, Drug Conc. 5): 34.845 | dCq (IP-Input) (Plasmid PRDM9WT, Drug Conc. 5): -5.123 | 2^-dCq (Plasmid PRDM9WT, Drug Conc. 10): 50.1539 | dCq (IP-Input) (Plasmid PRDM9WT, Drug Conc. 10): -5.648 | 2^-dCq (H3K4me3 IP relative to H3 IP) [1]: 96.9166 | 2^-dCq (H3K4me3 IP relative to H3 IP) [2]: 40.6216 | 2^-dCq (H3K4me3 IP relative to H3 IP) [3]: 33.0164 | 2^-dCq (H3K4me3 IP relative to H3 IP) [4]: 25.1288 | 2^-dCq (H3K4me3 IP relative to H3 IP) [5]: 88.9762 | 2^-dCq (H3K4me3 IP relative to H3 IP) [6]: 43.9056 | 2^-dCq (H3K4me3 IP relative to H3 IP) [7]: 32.8222 | 2^-dCq (H3K4me3 IP relative to H3 IP) [8]: 26.0973 | Cq (Plasmid PRDM9WT, Drug Conc. 5): 21.4925 and 21.6408 | Cq (Plasmid PRDM9WT, Drug Conc. 10): 21.2248 and 20.9811 | 2^-dCq (H3K4me3 ChIP relative to H3 ChIP) (Figure 7 A, chr2:128811847-128811944 (Intergenic), Plasmid Empty Vector, Drug Conc. 5): 0.5813 | 2^-dCq (H3K4me3 ChIP relative to H3 ChIP) (Figure 7 A, chr2:128811847-128811944 (Intergenic), Plasmid Empty Vector, Drug Conc. 10): 0.3956 | 2^-dCq (H3K4me3 ChIP relative to H3 ChIP) (Figure 7 A, chr2:128811847-128811944 (Intergenic), Plasmid PRDM9WT, Drug Conc. 5): 2.494 | 2^-dCq (H3K4me3 ChIP relative to H3 ChIP) (Figure 7 A, chr2:128811847-128811944 (Intergenic), Plasmid PRDM9WT, Drug Conc. 10): 2.2717 | 2^-dCq (H3K4me3 ChIP relative to H3 ChIP) (Figure 7 B, chr8:49932778-49932856 (Intergenic), Plasmid Empty Vector, Drug Conc. 5): 0.3925 | 2^-dCq (H3K4me3 ChIP relative to H3 ChIP) (Figure 7 B, chr8:49932778-49932856 (Intergenic), Plasmid Empty Vector, Drug Conc. 10): 0.1726 | 2^-dCq (H3K4me3 ChIP relative to H3 ChIP) (Figure 7 B, chr8:49932778-49932856 (Intergenic), Plasmid PRDM9WT, Drug Conc. 5): 4.749 | 2^-dCq (H3K4me3 ChIP relative to H3 ChIP) (Figure 7 B, chr8:49932778-49932856 (Intergenic), Plasmid PRDM9WT, Drug Conc. 10): 4.289 | 2^-dCq (H3K4me3 ChIP relative to H3 ChIP) (Figure 7 C, chr2:40281930-40282015 Intragenic (SLC8A1-AS1), Plasmid Empty Vector, Drug Conc. 5): 0.3263 | 2^-dCq (H3K4me3 ChIP relative to H3 ChIP) (Figure 7 C, chr2:40281930-40282015 Intragenic (SLC8A1-AS1), Plasmid Empty Vector, Drug Conc. 10): 0.2399 | 2^-dCq (H3K4me3 ChIP relative to H3 ChIP) (Figure 7 C, chr2:40281930-40282015 Intragenic (SLC8A1-AS1), Plasmid PRDM9WT, Drug Conc. 5): 5.248 | 2^-dCq (H3K4me3 ChIP relative to H3 ChIP) (Figure 7 C, chr2:40281930-40282015 Intragenic (SLC8A1-AS1), Plasmid PRDM9WT, Drug Conc. 10): 4.126 | H3K4me3 levels at PRDM9-dependent intragenic and intergenic loci (ChIP-qPCR, in words) (HEK293T transfected with wild-type PRDM9, 48 h, various concentrations): negligible impact | 2^-dCq (H3K4me3 ChIP-qPCR, IP relative to H3) (Figure 7 D chr3:165514798-165514911 Intragenic (BCHE), Plasmid Empty Vector, Drug Conc. 5): 0.55 | 2^-dCq (H3K4me3 ChIP-qPCR, IP relative to H3) (Figure 7 D chr3:165514798-165514911 Intragenic (BCHE), Plasmid Empty Vector, Drug Conc. 10): 0.9804 | 2^-dCq (H3K4me3 ChIP-qPCR, IP relative to H3) (Figure 7 D chr3:165514798-165514911 Intragenic (BCHE), Plasmid PRDM9WT, Drug Conc. 5): 6.945 | 2^-dCq (H3K4me3 ChIP-qPCR, IP relative to H3) (Figure 7 D chr3:165514798-165514911 Intragenic (BCHE), Plasmid PRDM9WT, Drug Conc. 10): 8.326 | 2^-dCq (H3K4me3 ChIP-qPCR, IP relative to H3) [1]: 90.8317 | 2^-dCq (H3K4me3 ChIP-qPCR, IP relative to H3) [2]: 79.4548 | 2^-dCq (H3K4me3 ChIP-qPCR, IP relative to H3) [3]: 29.3928 | 2^-dCq (H3K4me3 ChIP-qPCR, IP relative to H3) [4]: 64.1533 | 2^-dCq (H3K4me3 ChIP-qPCR, IP relative to H3) [5]: 64.4199 | 2^-dCq (H3K4me3 ChIP-qPCR, IP relative to H3) [6]: 72.9088 | 2^-dCq (H3K4me3 ChIP-qPCR, IP relative to H3) [7]: 34.845 | 2^-dCq (H3K4me3 ChIP-qPCR, IP relative to H3) [8]: 50.1539 | H3K4me3 ChIP-qPCR 2^-dCq (IP-Input) (chr2:40281930-40282015 Intragenic (SLC8A1-AS1), Figure 7 C, Empty Vector, Drug Conc. 5): 0.5453 | H3K4me3 ChIP-qPCR 2^-dCq (IP-Input) (chr2:40281930-40282015 Intragenic (SLC8A1-AS1), Figure 7 C, Empty Vector, Drug Conc. 10): 0.744 | H3K4me3 ChIP-qPCR 2^-dCq (IP-Input) (chr2:40281930-40282015 Intragenic (SLC8A1-AS1), Figure 7 C, PRDM9WT, Drug Conc. 5): 5.233 | H3K4me3 ChIP-qPCR 2^-dCq (IP-Input) (chr2:40281930-40282015 Intragenic (SLC8A1-AS1), Figure 7 C, PRDM9WT, Drug Conc. 10): 7.127 | H3K4me3 ChIP-qPCR 2^-dCq (IP-Input) (chr2:128811847-128811944 (Intergenic), Figure 7 A, Empty Vector, Drug Conc. 5): 1.312 | H3K4me3 ChIP-qPCR 2^-dCq (IP-Input) (chr2:128811847-128811944 (Intergenic), Figure 7 A, Empty Vector, Drug Conc. 10): 1.714 | H3K4me3 ChIP-qPCR 2^-dCq (IP-Input) (chr2:128811847-128811944 (Intergenic), Figure 7 A, PRDM9WT, Drug Conc. 5): 3.31 | H3K4me3 ChIP-qPCR 2^-dCq (IP-Input) (chr2:128811847-128811944 (Intergenic), Figure 7 A, PRDM9WT, Drug Conc. 10): 4.0213 | H3K4me3 ChIP-qPCR 2^-dCq (IP-Input) (chr8:49932778-49932856 (Intergenic), Figure 7 B, Empty Vector, Drug Conc. 5): 0.869 | H3K4me3 ChIP-qPCR 2^-dCq (IP-Input) (chr8:49932778-49932856 (Intergenic), Figure 7 B, Empty Vector, Drug Conc. 10): 0.9683 | H3K4me3 ChIP-qPCR 2^-dCq (IP-Input) (chr8:49932778-49932856 (Intergenic), Figure 7 B, PRDM9WT, Drug Conc. 5): 6.096 | H3K4me3 ChIP-qPCR 2^-dCq (IP-Input) (chr8:49932778-49932856 (Intergenic), Figure 7 B, PRDM9WT, Drug Conc. 10): 6.298 | <Cq> (Plasmid PRDM9WT, Drug Conc. 5): 21.5667 | <Cq> (Plasmid PRDM9WT, Drug Conc. 10): 21.103

From PMC6917776, “Discovery of a chemical probe for PRDM9” (Nature Communications, 2019)
